Tests used:
OVCAR-3 = assay: Compound tested for cytotoxic Activity against Ovcar-3 cell line from ovarian carcinoma; type: functional, cell-based; conditions: Homo sapiens
HT-29 = assay: Compound tested for cytotoxic Activity against HT-29 cell line from colon carcinoma; type: functional, cell-based; conditions: Homo sapiens
P388 = assay: Compound tested for cytotoxic Activity against P-388 cell line from mouse leukemia; type: functional, cell-based
NHDF [1] = assay: Compound tested for cytotoxic Activity against NHDF cell line; Not toxic; type: functional, cell-based, Homo sapiens
CHO [2] = assay: Compound tested for cytotoxic Activity against CHO cell line; Not toxic; type: functional, cell-based, Cricetulus griseus
MOLT-4 = assay: Compound tested for cytotoxic Activity against Molt-4 cell line from T cell leukemia; type: functional, cell-based; conditions: Homo sapiens
UCLA P-3 = assay: Compound tested for cytotoxic Activity against UCLA-P3 cell line from lung carcinoma; type: functional, cell-based; conditions: Homo sapiens
MCF7 = assay: Compound tested for cytotoxic Activity against MCF-7 cell line from breast carcinoma; type: functional, cell-based; conditions: Homo sapiens
CAPAN-1 = assay: Compound tested for cytotoxic Activity against Capan-l cell line from pancreatic carcinoma; type: functional, cell-based; conditions: Homo sapiens
HL-60 = assay: Compound tested for cytotoxic Activity against HL-60 cell line from promyelocytic leukemia; type: functional, cell-based; conditions: Homo sapiens
SK-MEL-28 = assay: Compound tested for cytotoxic Activity against SK-Mel-28 cell line from melanoma; type: functional, cell-based; conditions: Homo sapiens
H322 [3] = assay: Compound tested for cytotoxic Activity against H-322 cell line from lung carcinoma; type: functional, cell-based; conditions: Homo sapiens, NCI-H322
NHDF [4] = assay: (§1) Compound tested for cytotoxic Activity against NHDF cell line; type: functional, cell-based; conditions: Homo sapiens
CHO [5] = assay: (§2) Compound tested for cytotoxic Activity against CHO cell line; type: functional, cell-based; conditions: Cricetulus griseus
H322 [6] = assay: Compound tested for cytotoxic Activity against H-322 cell line from lung carcinoma; Non toxic; type: functional, cell-based, Homo sapiens
CHO [7] = assay: as §2; type: cell-based; conditions: Cricetulus griseus
NHDF [8] = assay: as §1; type: cell-based; conditions: Homo sapiens

Row | Compound | IC50 (OVCAR-3) [µM] | IC50 (HT-29) [µM] | IC50 (P388) [µM] | IC50 (NHDF [1]) | IC50 (CHO [2]) | IC50 (MOLT-4) [µM] | IC50 (UCLA P-3) [µM] | IC50 (MCF7) [µM] | IC50 (CAPAN-1) [µM] | IC50 (HL-60) [µM] | IC50 (SK-MEL-28) [µM] | IC50 (H322 [3]) [µM] | IC50 (NHDF [4]) [µM] | IC50 (CHO [5]) [µM] | IC50 (H322 [6]) | IC50 (CHO [7]) [µM] | IC50 (NHDF [8]) [µM]
1 | CC(C)(COC(=O)N1c2ccccc2[C@@]23O[C@]24CCC[C@@H]3C#C/C=C\C#C[C@H]14)S(=O)(=O)c1ccccc1 | 50 | 25 | 13 | Non-toxic | Non-toxic | 1000 | 50 | 25 | 50 | 25 | < 1000 | 50 |  |  |  |  | 
2 | C[C@@H](COC(=O)N1c2ccccc2[C@@]23O[C@]24CCC[C@@H]3C#C/C=C\C#C[C@H]14)S(=O)(=O)c1ccccc1 | 3.1 | 0.78 | 1.6 |  |  | 0.01 | 3.1 | 25 | 3.1 | 0.78 | 50 | 13 | 1000 | 1000 |  |  | 
3 | C[C@H](COC(=O)N1c2ccccc2[C@@]23O[C@]24CCC[C@@H]3C#C/C=C\C#C[C@H]14)S(=O)(=O)c1ccccc1 | 13 | 13 | 1.6 |  |  | 10 | 13 | > 1000 | 6.3 | 1.6 | > 1000 |  | > 1000 | > 1000 | Non-toxic |  | 
4 | O=C(OCCS(=O)(=O)c1ccccc1)N1c2ccccc2[C@@]23O[C@]24CCC[C@@H]3C#C/C=C\C#C[C@H]14 | 0.78 | 0.39 | 0.098 |  |  | 1e-05 | 0.78 | 3.1 | 0.078 | 0.098 | 63 | 3.1 |  |  |  | 6.3 | 6.3

From ChEMBL document CHEMBL1151079, “On the mechanism of activation of designed enediynes with selective cytotoxicity” (Bioorg Med Chem Lett, 1992)
